The term pIC50 denotes the IC50 on a negative log10 scale, so that one unit is a factor of ten.

For the test, the target named is T1, CDK8/CycC (Homo sapiens, UniProt P49336).
T1 construct: purchased Invitrogen PV4402
Kind of test: FRET based Lanthascreen binding competition assay for CDK8 inhibitory activity. Conditions: CDK8 co-expressed with CycC, read-out: IC50. The essentials: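 Competition binding of a dye-labeled ATP-competitive Alexa647 probe to CDK8 co-expressed with CycC, Eu-labeled via biotinylated anti-His antibody/streptavidin.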
(In general: In TR-FRET formats the signal depends on donor and acceptor labels being close together.)

The structures appear in SMILES notation. pIC50: −log10 of the molar value. Read-outs that look alike come from different tables or passages of the source.

T1 sequence (P49336 whole entry): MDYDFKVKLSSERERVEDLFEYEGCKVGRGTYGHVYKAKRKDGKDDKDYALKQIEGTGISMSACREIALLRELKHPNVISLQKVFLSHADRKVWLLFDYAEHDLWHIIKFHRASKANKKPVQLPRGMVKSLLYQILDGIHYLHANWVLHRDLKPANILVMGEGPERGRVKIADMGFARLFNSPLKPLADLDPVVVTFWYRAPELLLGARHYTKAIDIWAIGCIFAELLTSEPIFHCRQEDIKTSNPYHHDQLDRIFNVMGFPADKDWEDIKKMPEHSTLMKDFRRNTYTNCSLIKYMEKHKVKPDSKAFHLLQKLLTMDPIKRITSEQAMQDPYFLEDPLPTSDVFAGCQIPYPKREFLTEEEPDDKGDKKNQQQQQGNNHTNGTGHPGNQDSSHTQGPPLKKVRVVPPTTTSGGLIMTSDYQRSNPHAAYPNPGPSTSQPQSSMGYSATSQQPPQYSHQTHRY
T1 sequence (P24863 whole entry partner): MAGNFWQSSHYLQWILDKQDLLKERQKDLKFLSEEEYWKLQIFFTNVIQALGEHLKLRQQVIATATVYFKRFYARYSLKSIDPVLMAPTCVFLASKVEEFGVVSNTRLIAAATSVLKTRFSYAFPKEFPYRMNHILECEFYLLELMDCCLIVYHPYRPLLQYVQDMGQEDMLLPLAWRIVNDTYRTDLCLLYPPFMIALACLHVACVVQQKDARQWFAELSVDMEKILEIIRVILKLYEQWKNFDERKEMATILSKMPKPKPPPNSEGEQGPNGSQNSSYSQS

For `Cc1n[nH]c2ncc(C(=O)N3CCC[C@H]3c3ccc(CN)cc3)cc12` [compound 262, [(S)-2-(4-Aminomethyl-phenyl)-pyrrolidin-1-yl]-(3-methyl-1H-pyrazolo[3,4-b]pyridin-5-yl)-methanone], the pIC50 (class symbols) was 6.00 to 7.00.

Regarding `Nc1n[nH]c2cnc(C(=O)N3CCC[C@H]3c3ccc(Cl)cc3)cc12` [compound 265], the pIC50 (numeric value) is 6.47.

Source of the values: patent US9862717B2 (Merck Patent GmbH, priority 2014, dated 2018).
